Assay results taken from ChEMBL document CHEMBL1155728, “New steroid glycosides from the starfish Asterias rathbuni” (J Nat Prod, 2001).

Columns and labels:
Design in all cases: species or system Egg
[1] = Inhibition of cell division of fertilized eggs of Strongylocentrotus intermedius at 2.9 X 10 ' -5 M; conditions: fertilized sea urchin eggs
[2] = Inhibition of cell division of fertilized eggs of Strongylocentrotus intermedius
[3] = Inhibition of cell division of fertilized eggs of Strongylocentrotus intermedius at 7 X 10 ' -5 M; conditions: fertilized sea urchin eggs

IC100 [2] [×10⁻⁴ M]	Structure (SMILES)	also measured
	CC(C)=CC(=O)C[C@@H](C)[C@H]1CC[C@H]2[C@@H]3C[C@H](O)[C@H]4C[C@@H](OS(=O)(=O)O)CC[C@]4(C)C3=CC[C@]12C	inhibition at 29 µM [1]: 100%
1.9	CC(C)[C@H](CC[C@@H](C)[C@H]1C[C@H](OS(=O)(=O)[O-])[C@H]2[C@@H]3C[C@H](O)[C@H]4C[C@@H](O)CC[C@]4(C)[C@H]3CC[C@@]21C)O[C@@H]1OC[C@@H](O)[C@H](O)[C@H]1O.[Na+] [AMURENSOSIDE A]	
	CC(C)[C@H](CC[C@@H](C)[C@H]1C[C@@H](O)[C@H]2[C@@H]3C[C@H](O)[C@H]4C[C@@H](O)CC[C@]4(C)[C@H]3CC[C@@]21C)O[C@@H]1OC[C@@H](O)[C@H](O)[C@H]1O [RATHBUNIOSIDE R1]	inhibition at 70 µM [3]: 100%
1.7	CC(C)[C@H](CC[C@@H](C)[C@H]1C[C@H](O)[C@H]2[C@@H]3C[C@@H](O)[C@@]4(O)C[C@@H](O)CC[C@]4(C)[C@H]3CC[C@@]21C)O[C@@H]1OC[C@@H](O)[C@H](O)[C@H]1O [RATHBUNIOSIDE R2]	
